Several values for one entry are separate records, joined by “and”; a condition that tells them apart may be missing. Identical values can stand only once. Inconclusive results and toxic doses are left out. Rule for the calls: active = survival T/C of 150% or more; inactive = T/C below 125% in these data.
System: P388 leukemia ip, CD2F1 mice, survival T/C
Assay: NCI In Vivo Anticancer Drug Screen. Data for tumor model P388 Leukemia (intraperitoneal) in CD2F1 (CDF1) mice
Details: endpoint: median survival time, higher = longer survival
Procedure, shortened: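 Mice carrying the transplanted tumor received test compound or vehicle. Survival was recorded in each group, and the value is the treated-group measurement divided by that of the vehicle-treated control group.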

[1] = dose: 100.0 mg/kg/injection, schedule: Q01DX001 (ip), vehicle: saline
[2] = dose: 200.0 mg/kg/injection, schedule: Q01DX001 (ip), vehicle: saline
[3] = dose: 400.0 mg/kg/injection, schedule: Q01DX001 (ip), vehicle: saline
[4] = dose: 50.0 mg/kg/injection, schedule: Q01DX005 (ip), vehicle: Klucel (hydroxypropylcellulose) (HPC)
[5] = dose: 100.0 mg/kg/injection, schedule: Q01DX005 (ip), vehicle: Klucel (hydroxypropylcellulose) (HPC)
[6] = dose: 200.0 mg/kg/injection, schedule: Q01DX005 (ip), vehicle: Klucel (hydroxypropylcellulose) (HPC)
[7] = dose: 50.0 mg/kg/injection, schedule: Q01DX009 (ip), vehicle: saline
[8] = dose: 100.0 mg/kg/injection, schedule: Q01DX009 (ip), vehicle: saline
[9] = dose: 200.0 mg/kg/injection, schedule: Q01DX009 (ip), vehicle: saline

Measured: T/C

CCC(c1ccc(OCC(=O)N2CC2)cc1)C(CC)c1ccc(OCC(=O)N2CC2)cc1 (stereo not drawn)
inactive: dose: 100.0 mg/kg/injection, schedule: Q04DX003 (ip), vehicle: suspension in saline 99 % of control | dose: 200.0 mg/kg/injection, schedule: Q04DX003 (ip), vehicle: suspension in saline 98 % of control | dose: 400.0 mg/kg/injection, schedule: Q04DX003 (ip), vehicle: suspension in saline 100 % of control

OCCCCC/C=C/CCCCCCC1C=CCC1 (stereo not drawn)
inactive: [1] 99 % of control | [2] 99 % of control | [3] 99 % of control

O=C1CC2C(C1Nc1ccccc1)C1C(=Nc3ccccc3)C(Nc3ccccc3)=CC1N2c1ccccc1 (stereo not drawn)
inactive: dose: 7.5 mg/kg/injection, schedule: Q01DX005 (ip), vehicle: Klucel (hydroxypropylcellulose) (HPC) 100 % of control | dose: 15.0 mg/kg/injection, schedule: Q01DX005 (ip), vehicle: Klucel (hydroxypropylcellulose) (HPC) 97 % of control | dose: 30.0 mg/kg/injection, schedule: Q01DX005 (ip), vehicle: Klucel (hydroxypropylcellulose) (HPC) 95 % of control

O=C(O)CCC(CS)C(=O)O (stereo not drawn)
inactive: dose: 0.5 mg/kg/injection, schedule: Q01DX005 (ip), vehicle: saline 100 % of control | dose: 1.0 mg/kg/injection, schedule: Q01DX005 (ip), vehicle: saline 100 % of control | dose: 2.0 mg/kg/injection, schedule: Q01DX005 (ip), vehicle: saline 100 % of control | dose: 4.0 mg/kg/injection, schedule: Q01DX005 (ip), vehicle: saline 98 % of control | dose: 8.0 mg/kg/injection, schedule: Q01DX005 (ip), vehicle: saline 98 % of control | dose: 16.0 mg/kg/injection, schedule: Q01DX005 (ip), vehicle: saline 112 % of control | dose: 32.0 mg/kg/injection, schedule: Q01DX005 (ip), vehicle: saline 100 % of control | dose: 64.0 mg/kg/injection, schedule: Q01DX005 (ip), vehicle: saline 96 % of control | dose: 128.0 mg/kg/injection, schedule: Q01DX005 (ip), vehicle: saline 89 % of control

Cc1ccc(C)c2c1C(=O)c1ccccc1C2(O)C#Cc1ccccc1 (stereo not drawn)
inactive: [4] 101 % of control | [5] 94 % of control | [6] 94 % of control

O=C1Nc2ccccc2/C1=N/N=C/c1ccccc1Cl
inactive: dose: 50.0 mg/kg/injection, schedule: Q01DX009 (ip), vehicle: Klucel (hydroxypropylcellulose) (HPC) 99 % of control and 88 % of control | dose: 100.0 mg/kg/injection, schedule: Q01DX009 (ip), vehicle: Klucel (hydroxypropylcellulose) (HPC) 86 % of control and 97 % of control | dose: 200.0 mg/kg/injection, schedule: Q01DX009 (ip), vehicle: Klucel (hydroxypropylcellulose) (HPC) 96 % of control

NC(=O)c1ccc2nccn2c1
inactive: dose: 50.0 mg/kg/injection, schedule: Q04DX003 (ip), vehicle: saline 101 % of control | dose: 100.0 mg/kg/injection, schedule: Q04DX003 (ip), vehicle: saline 115 % of control | dose: 200.0 mg/kg/injection, schedule: Q04DX003 (ip), vehicle: saline 119 % of control

FC12CCC(c3ccccc3)(CC1)CC2
inactive: dose: 100.0 mg/kg/injection, schedule: Q04DX003 (ip), vehicle: Klucel (hydroxypropylcellulose) (HPC) 98 % of control | dose: 200.0 mg/kg/injection, schedule: Q04DX003 (ip), vehicle: Klucel (hydroxypropylcellulose) (HPC) 100 % of control | dose: 400.0 mg/kg/injection, schedule: Q04DX003 (ip), vehicle: Klucel (hydroxypropylcellulose) (HPC) 103 % of control

CCCCCCC(=O)/C=C/c1ccc(OC(=O)c2ccccc2)cc1
inactive: [7] 97 % of control | [8] 97 % of control | [9] 110 % of control

Cn1c(/C=N/NC2=NCCCN2)cnc1[N+](=O)[O-]
inactive: dose: 100.0 mg/kg/injection, schedule: Q04DX002 (ip), vehicle: saline with Tween-80 97 % of control | dose: 200.0 mg/kg/injection, schedule: Q04DX002 (ip), vehicle: saline with Tween-80 104 % of control | dose: 400.0 mg/kg/injection, schedule: Q04DX002 (ip), vehicle: saline with Tween-80 107 % of control

O=C1OCCCCOC(=O)c2ccccc2SSc2ccccc21
inactive: dose: 100.0 mg/kg/injection, schedule: Q01DX001 (ip), vehicle: saline with Tween-80 90 % of control | dose: 200.0 mg/kg/injection, schedule: Q01DX001 (ip), vehicle: saline with Tween-80 99 % of control | dose: 400.0 mg/kg/injection, schedule: Q01DX001 (ip), vehicle: saline with Tween-80 99 % of control

COc1cccc2[se]c(C(=O)O)cc12
inactive: [7] 92 % of control | [8] 89 % of control

CCOc1ccc(Br)cc1/C=N\N=C\c1cc(Br)ccc1OCC
inactive: dose: 100.0 mg/kg/injection, schedule: Q01DX009 (ip), vehicle: saline with Tween-80 90 % of control | dose: 100.0 mg/kg/injection, schedule: Q04DX003 (ip), vehicle: saline with Tween-80 95 % of control | dose: 200.0 mg/kg/injection, schedule: Q01DX009 (ip), vehicle: saline with Tween-80 100 % of control | dose: 200.0 mg/kg/injection, schedule: Q04DX003 (ip), vehicle: saline with Tween-80 95 % of control | dose: 400.0 mg/kg/injection, schedule: Q01DX009 (ip), vehicle: saline with Tween-80 100 % of control | dose: 400.0 mg/kg/injection, schedule: Q04DX003 (ip), vehicle: saline with Tween-80 100 % of control

CNC(=S)N(C)CCCCN(C)C(=S)NC
inactive: [7] 102 % of control | [8] 105 % of control | [9] 100 % of control

Cc1ccc(NCCCN2CCN(CCCNc3ccc(C)c4sc5ccccc5c(=O)c34)CC2)c2c(=O)c3ccccc3sc12
inactive: dose: 0.5 mg/kg/injection, schedule: Q01DX005 (ip), vehicle: saline with Tween-80 97 % of control | dose: 1.0 mg/kg/injection, schedule: Q01DX005 (ip), vehicle: saline with Tween-80 88 % of control | dose: 2.0 mg/kg/injection, schedule: Q01DX005 (ip), vehicle: saline with Tween-80 97 % of control | dose: 4.0 mg/kg/injection, schedule: Q01DX005 (ip), vehicle: saline with Tween-80 90 % of control

NC(=O)N/N=C1/CCC(O)CC1CC(=O)O (stereo not drawn)
inactive: [4] 103 % of control | [5] 100 % of control | [6] 97 % of control

COc1ccc2ncc(COC(=O)NC3CCCCC3)c(COC(=O)NC3CCCCC3)c2c1
inactive: dose: 12.5 mg/kg/injection, schedule: Q01DX005 (ip), vehicle: Klucel (hydroxypropylcellulose) (HPC) 91 % of control | dose: 25.0 mg/kg/injection, schedule: Q01DX005 (ip), vehicle: Klucel (hydroxypropylcellulose) (HPC) 94 % of control | [4] 88 % of control

O=c1oc2c(cc1-c1ccccc1)CCc1ccccc1-2
inactive: [4] 102 % of control | [5] 100 % of control | [6] 102 % of control

CCOc1ccc2c(c1)/C(=C\C=C\C1CC(C)C3CC(OCC)CCC3N1CC)CC(C)N2CC (stereo not drawn)
inactive: dose: 1.25 mg/kg/injection, schedule: Q01DX009 (ip), vehicle: saline + alcohol 120 % of control

CC(C)CC(NC(=O)OC(C)(C)C)C(=O)CBr (stereo not drawn)
inactive: dose: 12.5 mg/kg/injection, schedule: Q01DX001 (ip), vehicle: saline with Tween-80 105 % of control | dose: 25.0 mg/kg/injection, schedule: Q01DX001 (ip), vehicle: saline with Tween-80 105 % of control | dose: 50.0 mg/kg/injection, schedule: Q01DX001 (ip), vehicle: saline with Tween-80 96 % of control

COC(=O)CCCCCCCCCCCC1C=CCC1 (stereo not drawn)
inactive: [1] 105 % of control | [2] 100 % of control | [3] 104 % of control

CCCCCc1c(-c2n[nH]c(C)c2CCCCC)n[nH]c1C
inactive: dose: 60.0 mg/kg/injection, schedule: Q01DX005 (ip), vehicle: Klucel (hydroxypropylcellulose) (HPC) 92 % of control | dose: 120.0 mg/kg/injection, schedule: Q01DX005 (ip), vehicle: Klucel (hydroxypropylcellulose) (HPC) 96 % of control | dose: 240.0 mg/kg/injection, schedule: Q01DX005 (ip), vehicle: Klucel (hydroxypropylcellulose) (HPC) 100 % of control
